These results are taken from patent US12122756B2, “Biflavone compound against I-type herpes simplex virus, and preparation method therefor and use thereof” (priority 2022, dated 2024).

A word on the solubility: it is how much of the substance goes into solution per volume.

In series [1] the test system is HSV-I. The experiment in a line: Cytopathic effect (CPE) assay: inhibition of pathological changes of Vero cells induced by HSV-I (CCK-8). The series is classed as cell-based, Herpes simplex virus type I. The settings on record: for inhibitory effect on HSV-I induced cytopathic changes (in words): CPE method; for Inhibition rate (%) / OD value: n = 5. How it is done: (1) Determination of the inhibitory activities of the test drugs on pathological changes of Vero cells induced by HSV-I using the cytopathic effect (CPE) assay: Vero cells were seeded in a 96-well plate and grew into a monolayer the next day. 100TCID50 HSV-I was added to infect cells, and then the cell maintenance solution containing different concentrations of the test drug was replaced, and a cell control group was included. The cells were cultured in an incubator for 72 hours. Then, the inhibitory effect of the drug on virus-induced cytopathic changes was measured using the CCK-8 assay, and thus the 50% inhibiting concentration (IC50) of the drug was calculated.
For orientation: Protection from cytopathic effect is a common read-out in antiviral testing.

Series [2] deals with Vero cells. The experiment in a line: Cytotoxic assay of tested drugs against Vero cells (CCK-8). The class given is cell-based, African green monkey. As to conditions: for highest non-toxic concentration: Vero cells, CCK-8. How it is done:
3. Cytotoxic assay of tested drugs against Vero cells: Vero cells were seed in a 96 well plate at 3×10^4 cells/well. The next day, after growing into a monolayer, the test drug was diluted to obtain 8-9 concentrations and added to each well. Meanwhile, a normal control group was established, with 4 replicate wells for each group. After 72 hours, the toxicity of the test drug to Vero cells was measured using CCK-8 assay, and the highest non-toxic concentration and half toxic concentration (TC50) of the drug on the cells were calculated.

The nature of series [3]: Solubility (highest solubility used as starting concentration; water solubility).
[4] abbreviates: Concentration 1 (3 concentrations, 50% dilution based on highest non-toxic concentration).
Where [5] appears, read: 1st (highest) concentration (971, 1600, 2620, 390 μg·ml^−1 for Compounds 1-4), 72 h.
[6] abbreviates: 2nd concentration, 50% serial dilution from column-head concentration, 72 h.
Setting [7] is: 3rd concentration, 50% serial dilution from column-head concentration, 72 h.
Setting [8] is: 4th concentration, 50% serial dilution from column-head concentration, 72 h.
Setting [9] is: 5th concentration, 50% serial dilution from column-head concentration, 72 h.
Setting [10] is: 6th concentration, 50% serial dilution from column-head concentration, 72 h.
Setting [11] is: 7th concentration, 50% serial dilution from column-head concentration, 72 h.
Setting [12] is: 8th concentration, 50% serial dilution from column-head concentration, 72 h.
Where [13] appears, read: 9th concentration, 50% serial dilution from column-head concentration, 72 h.

Where two headings read alike, the source gives them in different places. Marks after values point to notes of the source that are not given here.

As for `COc1c(O)cc2occ(-c3ccc(O)c(S(=O)(=O)[O-])c3)c(=O)c2c1O.[Na+]` [Compound 1, sodium tectorigenin-5′-sulphonate], the “inhibitory effect on HSV-I induced cytopathic changes (in words)” value in series [1] is on record as “the effect was not significant”. Further, the “Inhibition rate (%)” value in series [1] (setting [4]) worked out at 4.41%; in series [1] (Concentration 2), 3.29%; in series [1] (Concentration 3), 2.26%. Further, the values for the OD value in series [1] (setting [4]), in series [1] (Concentration 2) and in series [1] (Concentration 3) were 0.37 ± 0.04, 0.37 ± 0.02 and 0.36 ± 0.03, respectively. The “TC50 on Vero cells” value in series [2] turned out to be 390.312 µg/mL. Further, the “growth inhibition rate (%) on Vero cells” value is on record as 57.86** % in series [2] (setting [5]); 49.99** % in series [2] (setting [6]); 42.06** % in series [2] (setting [7]); 39.97** % in series [2] (setting [8]); 34.95** % in series [2] (setting [9]); 28.48** % in series [2] (setting [10]). Also, the results for the “growth inhibition rate (%) on Vero cells” value in series [2] (setting [11]), in series [2] (setting [12]) and in series [2] (setting [13]) were 27.14** %, 25.37** % and −1.57%, respectively.

In the case of `CCOc1ccc(-c2coc3c(Cc4c(OCC)c(OC)c(O)c5c(=O)c(-c6ccc(OCC)c(S(=O)(=O)[O-])c6)coc45)c(OCC)c(OC)c(O)c3c2=O)cc1S(=O)(=O)[O-].[Na+].[Na+]` [Compound 4, sodium 8,8″-methylene-di-(4,7′-diethyltectorigenin-5′-sulphonate)], the “inhibitory effect on HSV-I induced cytopathic changes (in words)” value in series [1] is “no significant inhibitory effect”. Also, the “Inhibition rate (%)” value in series [1] (setting [4]) is reported as 5.96%; in series [1] (Concentration 2), 6.09%; in series [1] (Concentration 3), 5.99%. The values for the OD value in series [1] (setting [4]), in series [1] (Concentration 2) and in series [1] (Concentration 3) were 0.32 ± 0.02, 0.32 ± 0.01 and 0.32 ± 0.01, respectively. Besides, the “growth inhibition rate (%) on Vero cells” value in series [2] (setting [5]) is 28.40** %; in series [2] (setting [6]), 27.54** %; in series [2] (setting [7]) it was 26.53** %; in series [2] (setting [8]), 23.48** %; in series [2] (setting [9]), 22.02** %; in series [2] (setting [10]) it was 18.43** %. Further, the results for the “growth inhibition rate (%) on Vero cells” value in series [2] (setting [11]), in series [2] (setting [12]) and in series [2] (setting [13]) were 14.94** %, 9.42% and −23.23%, respectively. The “TC50 on Vero cells” value in series [2] (72 h, CCK-8, Probit regression) stood at 11308.7 µg/mL. This compound also showed a highest non-toxic concentration in series [2] (72 h) of 0.864 µg/mL. In series [3], this compound returned a solubility of 390 µg/mL.

Take `CCOc1ccc(-c2coc3cc(OCC)c(OC)c(O)c3c2=O)cc1S(=O)(=O)[O-].[Na+]` [Compound 3, sodium 4,7′-diethyltectorigenin-5′-sulphonate]: in series [1], the “inhibitory effect on HSV-I induced cytopathic changes (in words)” value was “no significant inhibitory effect”. Also, the results for the “Inhibition rate (%)” value in series [1] (setting [4]), in series [1] (Concentration 2) and in series [1] (Concentration 3) were 6.20%, 8.65% and 4.09%, respectively. For the same compound, the OD value in series [1] (setting [4]) is given as 0.38 ± 0.05; in series [1] (Concentration 2), 0.39 ± 0.10; in series [1] (Concentration 3), 0.37 ± 0.03. Also, the “growth inhibition rate (%) on Vero cells” value in series [2] (setting [5]) is listed as 45.06** %; in series [2] (setting [6]), 40.80** %; in series [2] (setting [7]), 36.94** %; in series [2] (setting [8]), 34.23** %; in series [2] (setting [9]) it was 32.36** %; in series [2] (setting [10]), 27.12** %. The results for the “growth inhibition rate (%) on Vero cells” value in series [2] (setting [11]), in series [2] (setting [12]) and in series [2] (setting [13]) were 25.55** %, 22.06** % and −0.24%, respectively. Moreover, in series [2] (72 h, CCK-8, Probit regression), the “TC50 on Vero cells” value was found to be 3020.44 µg/mL. In addition, the highest non-toxic concentration in series [2] (72 h) was 3.496 µg/mL. The same compound showed a solubility in series [3] of 2620 µg/mL.
